Results taken from publication PMC12865225 (Clinical and Translational Science, 2026).

Target: T1, OATP2B1 (Homo sapiens, UniProt O94956)
T1 construct: expressed in transfected cells; host or cells: HEK293 (recombinant baculovirus-mediated transduction)
T1 sequence (O94956 1-709): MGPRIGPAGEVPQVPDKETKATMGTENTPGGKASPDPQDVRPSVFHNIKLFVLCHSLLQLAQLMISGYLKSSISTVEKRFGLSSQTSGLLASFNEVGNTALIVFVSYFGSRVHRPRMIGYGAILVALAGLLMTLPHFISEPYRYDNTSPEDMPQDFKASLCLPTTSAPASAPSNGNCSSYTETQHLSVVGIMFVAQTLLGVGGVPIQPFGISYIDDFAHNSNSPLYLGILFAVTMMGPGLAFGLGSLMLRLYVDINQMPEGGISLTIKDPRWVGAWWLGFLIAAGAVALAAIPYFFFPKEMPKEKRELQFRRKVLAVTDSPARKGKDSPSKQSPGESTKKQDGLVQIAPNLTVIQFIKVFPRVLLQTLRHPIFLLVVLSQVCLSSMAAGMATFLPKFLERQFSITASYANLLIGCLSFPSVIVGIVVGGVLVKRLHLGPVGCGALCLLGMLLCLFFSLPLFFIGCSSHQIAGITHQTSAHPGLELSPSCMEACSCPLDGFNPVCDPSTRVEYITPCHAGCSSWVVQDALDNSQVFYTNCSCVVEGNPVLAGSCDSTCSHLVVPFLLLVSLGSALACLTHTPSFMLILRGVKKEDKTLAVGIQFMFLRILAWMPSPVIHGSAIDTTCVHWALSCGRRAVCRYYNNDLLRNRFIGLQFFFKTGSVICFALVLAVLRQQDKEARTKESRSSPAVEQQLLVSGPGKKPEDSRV
Experiment: OATP2B1 inhibition, rosuvastatin uptake into transporter-expressing HEK293 cells
Assay type: cell-based
Conditions: for Calculated R-value OATP2B1 (hepatic): R = 1 + (I in,max,u/IC50), FDA cut-off ≥ 1.1; for Calculated R-value OATP2B1 (intestinal): R = I gut/IC50, FDA cut-off ≥ 10
Method: The human transporters OATP1B1, OATP1B3, OATP2B1, and OAT1‐OAT4 and a negative control protein (enhanced yellow fluorescent protein, eYFP) were transiently expressed in human embryonic kidney 293 (HEK293) cells by recombinant baculovirus‐mediated transduction. Baculoviruses carrying human genes for the transporters were prepared as reported previously. HEK293 cells were cultured in DMEM containing 10% fetal bovine serum at 37°C and 5% CO2 and passaged two to three times per week. For the transport studies, 0.05 × 10^6 cells for 48‐well plates (OATPs) or 0.06 × 10^6 cells for 24‐well plates (OATs) were seeded onto cell‐culture treated well plates coated with poly‐D‐lysine. After 1 day, cells were transduced to produce recombinant proteins by changing media to DMEM containing 30 μL (48‐well plates) or 60 μL (24‐well plates) of recombinant baculovirus and 3 mM (OATs) or 5 mM (OATPs) sodium butyrate in a total media volume of 500 μL. The cells were cultured for a further 2 days before the transport assays.
For the transport studies, media were removed and cells were washed once with warm transport uptake buffer (TP‐buffer—pH 7.4 HBSS with 25 mM HEPES and 4 mM sodium bicarbonate). Each experiment included triplicate (OATP) or duplicate (OAT) samples for every test condition. The uptake was started by removing liquid from wells and applying warm TP‐buffer (200 μL for 24‐well plates or 125 μL for 48‐well plates) containing a test compound to cells. Transport assays were terminated after a pre‐specified incubation time (reported in figure legends) by removing substrate solution and washing cells three times with cold TP‐buffer (300 μL for 48‐well plates and 400 μL for 24‐well plates). For the liquid chromatography mass spectrometry (LC–MS) analysis, compounds were extracted from cells with 125 μL (48‐well plates) or 250 μL (24‐well plates) of an ultrapure‐water solution containing 75% methanol and 0.1% formic acid, shaking at 250 RPM for 30 min. […] Samples were transferred to well plates, centrifuged at 3000 g for 30 min, and transferred to a new well plate for the analysis.
In the OATP inhibition assays, inhibitors in warm TP‐buffer were directly applied to cells after media removal, followed by a 30‐min preincubation step in the presence of inhibitors. […] OAT1 and OAT3 cells were lysed with 200 μL of 1 M sodium hydroxide for 10 min, and 150 μL of these samples were transferred to a black well plate for fluorescein quantification. […]
For the inhibition data analysis, the average of measured concentrations in the control cells was subtracted from the average of measured concentrations in transporter‐expressing cells for each inhibitor concentration and then normalized to the vehicle sample that represents 100% transport activity. […]

Row | SMILES | Calculated R-value OATP2B1 (hepatic) | Calculated R-value OATP2B1 (intestinal)
1 | Cc1onc(-c2c(Cl)cccc2Cl)c1C(=O)N[C@@H]1C(=O)N2[C@@H]1SC(C)(C)[C@@H]2C(=O)O [Dicloxacillin] | 1.2 | 240
2 | Cc1onc(-c2c(F)cccc2Cl)c1C(=O)N[C@@H]1C(=O)N2[C@@H]1SC(C)(C)[C@@H]2C(=O)O [Flucloxacillin] | 1.2 | 137
